Marks after values point to notes of the source that are not given here.
Tests used:
[1] = system: rat brain cortical neurons induced by Aβ25-35; test: T-AOC in culture medium of neurons damaged by Aβ25-35; type: cell-based
Excerpt: Aβ25-35 and MTT, purchased from Sigma Company; T-AOC assay kit, MDA assay kit, GSH-PX assay kit and SOD assay kit, purchased from Nanjing Jiancheng Bioengineering Institute; and cell apoptosis fluorescent Hoechst33342/PI double staining reagent kit purchased from Nanjing KeyGEN Biotech Co., Ltd. […] Other detection indexes: […] Three experiments of different samples were repeated to detect each index of this experiment (except the Hoechst/PI double staining experiment and the experiment of cell morphological observation), and all results are obtained via the results of three experiments by using statistical analysis. The T-AOC can be measured to evaluate the antioxidant capacity of the total antioxidant substances in the system. […] The protective effect of the Fx-powder is improved with the increase of the drug concentrations. However, A and the Fx-oil are not dose-dependent although they can improve the T-AOC.

[2] = system: rat brain cortical neurons induced by Aβ25-35; test: MDA content in culture medium of neurons damaged by Aβ25-35; type: cell-based
Excerpt: Aβ25-35 and MTT, purchased from Sigma Company; T-AOC assay kit, MDA assay kit, GSH-PX assay kit and SOD assay kit, purchased from Nanjing Jiancheng Bioengineering Institute; and cell apoptosis fluorescent Hoechst33342/PI double staining reagent kit purchased from Nanjing KeyGEN Biotech Co., Ltd. […] Other detection indexes: […] Three experiments of different samples were repeated to detect each index of this experiment (except the Hoechst/PI double staining experiment and the experiment of cell morphological observation), and all results are obtained via the results of three experiments by using statistical analysis. ROS is generated by organisms through the enzyme system and the non-enzyme system and the ROS is able to attack polyunsaturated fatty acids in biological membranes, and initiate lipid peroxidation to form lipid peroxides, such as MDA. Therefore, the amount of MDA can reflect the degree of lipid peroxidation in organisms, thereby indirectly reflecting the damage degree of cells attacked by free radicals. […] The Fx-powder can reduce the MDA content in the culture medium of the damaged neurons remarkably and is dose-dependent, and the protective effect of the Fx-powder increases with the increase of drug concentrations. The Fx-oil also has such effect to protect neurons from oxidative damage and is not evidently dose-dependent. The reference substance A presents certain protective effect at a low dose, but the effect is seemingly reversed at medium and high doses, along with an increase in the MDA content. However, there is no statistical difference compared with the model group.

[3] = system: rat brain cortical neurons induced by Aβ25-35; test: Neuron morphological detection by Hoechst/PI double staining; type: cell-based; settings: compared with model group, FIG. 1
Description: The anti-AD activity of fucoxanthin is evaluated by detecting indexes including cell survival rate (MTT), cytomorphology, SOD, GSH-PX, T-AOC and MDA etc. SOD plays an important role in the balance between oxidation and anti-oxidization of organisms. The enzyme is able to remove superoxide anion free radicals and protect cells from damage, and the activity of the enzyme indirectly reflects the ability of organisms to remove ROS. GSH-PX, which is an important enzyme for catalyzing the decomposition of hydrogen peroxide in the body, is able to protect the integrity of cellular membrane structures and functions. The T-AOC can be measured to evaluate the antioxidant capacity of the total anti-oxidant substances in a system. The quantity of MDA reflects the degree of lipid peroxidation in organisms and may indirectly reflect the damage level of cells attacked by free radicals. Hoechst/Propidium Iodide (PI) double staining is applied to cell morphological observation: both PI and Hoechst33342 can bonde with cell nuclear Deoxyribonucleic Acid (DNA) (or Ribonucleic Acid (RNA)). However, PI fails to get through normal cellular membranes while Hoechst is a membrane-permeable fluorescent dye. Therefore, necrotic cells or cells whose cellular membranes are damaged during late apoptosis are stained red by PI while normal cells and cells in early apoptosis or mid-apoptosis are stained blue by Hoechst. However, nucleolus of apoptotic cell present a bright blue color due to concentration. Normal cells (blue), apoptotic cells (bright blue) and necrotic cells (red) can be distinguished according to different colors. However, the accompanying drawings in the specification are colorless, thus the colors are replaced by hollow rounds (blue), grey rounds (bright blue) and black rounds (red). […] Other detection indexes: […] […]

[4] = system: rat brain cortical neurons induced by Aβ25-35; test: GSH-PX activity in culture medium of neurons damaged by Aβ25-35; type: cell-based
Excerpt: (§1) Aβ25-35 and MTT, purchased from Sigma Company; T-AOC assay kit, MDA assay kit, GSH-PX assay kit and SOD assay kit, purchased from Nanjing Jiancheng Bioengineering Institute; and cell apoptosis fluorescent Hoechst33342/PI double staining reagent kit purchased from Nanjing KeyGEN Biotech Co., Ltd. […] Other detection indexes: […] Three experiments of different samples were repeated to detect each index of this experiment (except the Hoechst/PI double staining experiment and the experiment of cell morphological observation), and all results are obtained via the results of three experiments by using statistical analysis. Detect the influence of the reference substance A (A) and the coarse extracts thereof FX-01 powder (Fx-powder) and Fx-01 oil (Fx-oil) on the GSH-PX activity in the culture medium of the rat brain cortical neuron model induced by Aβ25-35, and the result is as shown in Table 3.

[5] = system: rat brain cortical neurons induced by Aβ25-35; test: Cell survival rate by MTT method in neurons damaged by Aβ25-35; type: cell-based; settings: control = 100%
Description: 1) kill zero to four-day old neonatal rats, immerse the rats in 75% alcohol for 2 to 3 seconds, put the rats in a sterile culture dish, take their brains, and place the brains in a sterile culture dish containing cold D-Hanks liquid, remove meninges and blood vessels, and isolate the cerebral cortex.
2) place the isolated tissues in a sterile culture dish containing a proper amount of 0.125% trypsin solution, cutting up the tissues into a size of about 0.5 mm*0.5 mm*0.5 mm, and place them for 5 minutes at room temperature.
3) transfer the tissue blocks to a 15 ml centrifugal tube, add a proper amount of DMEM-F12 culture medium containing 10% bovine serum to terminate digestion, blow gently with a bend suction pipe to obtain a single cell suspension.
4) filter the cells with a 400-mesh cell strainer.
5) perform centrifugation at 1000 rpm for 5 minutes, discard the supernatant, add a D-Hanks liquid to wash the cells, perform centrifugation at 1000 rpm for 5 minutes and discard the supernatant.
6) add a proper amount of DMEM-F12 culture medium containing 10% bovine serum, count the cells, according to a concentration of 1*10^5 cells/ml, inoculate cells in a 96-pore plate or a 24-pore plate, which applied with 10 μg/ml of polylysine as a basic layer, place the plate in a CO2 incubator and culture at 37 °C in a CO2 concentration of 5%.
7) 24 hours later, replace the culture medium with a DMEM-F12 culture medium containing 5 mg/L cytarabine and 10% bovine serum; 24 hours later, replace the culture medium with a DMEM-F12 culture medium containing 2% B-27 and 10% bovine serum; replace the culture medium with a DMEM-F12 culture medium containing 2% B-27 and 10% bovine serum every 2 days subsequently to change the solution.
A total of 8 experiment groups are set for cell survival rate detection, including a normal control group, a model group, 5 medicament groups of different concentrations (drug concentrations (the drug concentrations described herein refer to the dry weight of fucoxanthin): 0.39, 0.78, 1.56, 3.12 and 6.25 μg/ml) and a medicament control group (6.25 μg/ml). Other detection indexes: SOD, GSH-PX, T-AOC, MDA and cell morphological observation in which 5 experimental groups are set in total, including a normal control group, a model group and 3 medicament groups of different concentrations (drug concentrations: 0.39, 0.78 and 1.56 μg/ml).
Take cells cultured for 7 days, administer corresponding concentrations of the drug to the medicament groups, add an equal amount of a corresponding solvent to the control group and the model group, incubate for 16 hours, treat groups besides the control group with 5 μM of Aβ25-35 (pre-aged for 7 days at 37□) for 24 hours, take the cell culture medium to detect the T-AOC, the SOD, the MDA and the GSH-PX subsequently, and measure the cell survival rate by MTT method or perform morphological observation with a Hoechst/PI double staining experiment.
Determination of the cell survival rate by MTT method: culture the cells in a 96-pore plate, administer the drug to protect the cells for 16 hours, after damaging the cells by Aβ25-35 for 24 hours, add 5 mg/ml of MTT to the culture medium, continue to culture for 4 hours, terminate the culture, remove the culture medium through careful suction, add 200 μl of dimethyl sulfoxide to each pore, measure the absorbance of each pore at Optical Density (OD) 490 nm with an enzyme-labeled instrument after the crystals are completely dissolved and calculate the cell survival rate by taking the control group as 100%.

[6] = system: memory acquisition of mice; test: Step-through test, memory acquisition of mice; type: in vivo; settings: 0.42 mg/kg·bw for 30 days
Description: (§2) 1.1 Material: pure fucoxanthin prepared by our company, and the recommended daily intake for a mouse is equal to the daily dose 4 mg of the human body, male Kuming mice, 6 to 8 weeks old, bodyweight ranging from 18 to 22 g.
(§3) 1.2 dose and group: take the daily dose, i.e. 4 mg of fucoxanthin of the human body as a dose group, turn the dose into the daily dose of the mice, and set a blank control group.
1.52 Step-through test: the selection of animals, the grouping in the test, the doses for the tested objects, the administration methods and the administration time are the same as those in the step-down test, and step-through training was conducted after administering the samples continuously for 30 days. During the experiment, make the mice face back to the entrance of a bright room and put the mice into the bright room, start a timer, the animals passed through the entrance, entered the […] and received electric shocks, stop the timer, take out the mice and record the time needed for each mouse to be put into the bright room and enter a dark room to receive the electric shocks, i.e. the latency, repeat the test 24 hours later at the same time, and record the latency for each mouse to enter the dark room, the number of errors within 5 minutes, and the number of animals that entered the dark room.
(§4) 1.6 Data processing: process the obtained data by utilizing an SPSS1010 statistic software package and employ analysis of variance and X^2 test in the statistic method. […]

[7] = system: rat embryo neuron; settings: literature 2001-335480A published in Japan; cited from earlier work
[8] = system: memory acquisition of mice; test: Step-down test, memory acquisition of mice; type: in vivo; settings: 0.42 mg/kg·bw by lavage for 30 days
Description: as §2, §3
1.51 Step-down test: select 20 male mice with a bodyweight of 18 to 22 g, randomly divide the mice into a blank control group and a medication group, administer fucoxanthin to the medication group by lavage, conduct step-down training to the mice after administering the sample to the mice continuously for 30 days, put the animals in a reaction tank for adaption for 3 minutes, introduce a 36V alternating current, and the normal reaction of the animals was to jump back to the insulated platform quickly. Most of the animals might jump onto the copper grids again or jump onto the copper grids for multiple times, and jump back onto the platform after receiving electric shocks. After training once, the animals were placed on the platform in the reaction tank, record the number of electric shocks (number of errors) received by each mouse within 5 minutes as the learning performance, retest 24 hours later, and record the number of animals that received the electric shocks, the latency for the animals to step down the platform for the first time, and number of errors within 3 minutes.
as §4

[9] = system: rat brain cortical neurons induced by Aβ25-35; test: SOD activity in culture medium of neurons damaged by Aβ25-35; type: cell-based
Excerpt: as §1, with “analysis. The SOD activity can reflect ability of organisms to remove ROS indirectly. The” for “analysis. Detect the”, “the SOD” for “the GSH-PX”, “by Aβ25-35 is detected” for “by Aβ25-35,”, “Table 2. […] The SOD activity is improved with the increase of drug concentrations.” for “Table 3.”

## CC(=O)O[C@H]1CC(C)(C)C(=C=C/C(C)=C/C=C/C(C)=C/C=C/C=C(C)/C=C/C=C(\C)C(=O)C[C@@]23O[C@]2(C)C[C@@H](O)CC3(C)C)[C@](C)(O)C1 [A, fucoxanthin]
[1]; 0.39 μg/ml
  T-AOC (U/ml): 1.50 ± 0.54 U/ml
[1]; 0.78 μg/ml
  T-AOC (U/ml): 1.26 ± 0.37 U/ml
[1]; 1.56 μg/ml
  T-AOC (U/ml): 1.12 ± 0.13 U/ml
[2]; 0.39 μg/ml
  MDA: 5.12 ± 1.17 µmol/mL
[2]; 0.78 μg/ml
  MDA: 14.62 ± 3.82 µmol/mL
[2]; 1.56 μg/ml
  MDA: 12.34 ± 1.58 µmol/mL
[3]; 0.39 μg/ml
  Morphological detection: apoptotic and necrotic cells: slight decrease in the necrotic cells
[3]; 0.78 μg/ml
  Morphological detection: apoptotic and necrotic cells: The apoptotic cells and the necrotic cells decrease
[3]; 1.56 μg/ml
  Morphological detection: apoptotic and necrotic cells: The apoptotic cells and the necrotic cells decrease
[4]; 0.39 μg/ml
  GSH-PX (U/ml): 38.17 ± 6.84 U/ml
[4]; 0.78 μg/ml
  GSH-PX (U/ml): 61.50 ± 51.62 U/ml
[4]; 1.56 μg/ml
  GSH-PX (U/ml): 34.00 ± 5.29 U/ml
[5]; 0.39 μg/ml, drug 16 h then 5 μM Aβ25-35 24 h
  Cell survival rate (%): 98.45 ± 15.89 %
[5]; 0.78 μg/ml, drug 16 h then 5 μM Aβ25-35 24 h
  Cell survival rate (%): 92.36 ± 17.79%
[5]; 1.56 μg/ml, drug 16 h then 5 μM Aβ25-35 24 h
  Cell survival rate (%): 98.99 ± 9.52 %
[5]; 3.12 μg/ml, drug 16 h then 5 μM Aβ25-35 24 h
  Cell survival rate (%): 100.98 ± 8.74 %
[5]; 6.25 μg/ml, drug 16 h then 5 μM Aβ25-35 24 h
  Cell survival rate (%): 103.31 ± 11.93 %
[5]; medicament control group (6.25 μg/ml)
  Cell survival rate (%): 104.47 ± 20.70%
[6]
  Error response rate (%): 50** %
  Latency (seconds) Training: 40.2 ± 6.5 s
[6]; test 24 h later
  Latency (seconds) Test: 240.4 ± 43.2 s
[6]; within 5 minutes
  Number of errors Test: 0.4 ± 0.3
[7]
  Effect on rat embryo neuron injuries caused by cerebral ischemia-reperfusion: can inhibit rat embryo neuron injuries caused by cerebral ischemia-reperfusion
[8]
  Error response rate (%) Training: 100%
[8]; retest 24 h later
  Error response rate (%) Test: 50%
  Latency Test: 136.2 ± 25.6 s
[8]; retest 24 h later, within 3 minutes
  Number of errors Test: 0.3 ± 0.31
[8]; within 5 minutes
  Number of errors Training: 1.1 ± 0.56
[9]; 0.39 μg/ml
  SOD (U/ml): 15.38 ± 0.71 U/ml
[9]; 0.78 μg/ml
  SOD (U/ml): 15.72 ± 0.87 U/ml
[9]; 1.56 μg/ml
  SOD (U/ml): 15.77 ± 0.83 U/ml
